Data on 13 compounds can be found in US20040058380A1 (priority 2002, published 2004).

Assay in experiment [1]: not given
The source holds these as a separate data set.

Assay in experiment [2]: not given
The source holds these as a separate data set.

Assay in experiment [3]: not given
This is another data set of the same source.

Where two headings read alike, the source gives them in different places.

`N[C@@H](Cc1ccc(O)cc1)C(=O)O` [L-tyrosine]: the “potentiometric selectivity coefficient of DPA sensor (j: interference)” value is on record as 2.22 × 10^−3.
Still for that read-out and setting: for KCl the value was 44.4; for K2HPO4, 4.44.
Consider `O=C(O)C[C@@H](NC(=O)OCc1ccccc1)C(=O)O` [N-CBZ-D-Asp], for which, in experiment [1], the “potentiometric selectivity coefficient for L-isomer in the presence of D-isomer” value is given as 9×10^−3. The “potentiometric selectivity coefficient for N-CBZ-L-Asp with respect to N-CBZ-D-Asp” value in experiment [1] (pH 6.8) is 0.08. The D-Asp sensor output in experiment [2] (0.20 mM) is recorded as 47 Mv; in experiment [2] (0.33 mM), 55 Mv; in experiment [2] (0.50 mM), 62 Mv; in experiment [2] (0.64 mM) it was 68 Mv; in experiment [2] (0.79 mM), 71 Mv; in experiment [2] (0.93 mM), 76 Mv. The D-Asp sensor output in experiment [2] (1.49 mM) is 100 Mv; in experiment [2] (2.79 mM) it was 158 Mv; in experiment [2] (4.09 mM), 192 Mv; in experiment [2] (5.32 mM), 203 Mv.
For `NC(Cc1c[nH]c2ccccc12)C(=O)O` (racemic) [DL-tryptophan], the “potentiometric selectivity coefficient of DPA sensor (j: interference)” value was 2.22 × 10^−3.
On the same count and under the same terms, to NaCl belongs 20.
With `Cc1cc2nc3c(=O)[nH]c(=O)nc-3n(C[C@H](O)[C@H](O)[C@H](O)CO)c2cc1C` [riboflavin], the “potentiometric selectivity coefficient of DPA sensor (j: interference)” value was 7.78.
`O=C(O)c1cccc(C(=O)O)n1` [DPA, pyridine-2,6-dicarboxylic acid]: under “pH 7.2”, the “DPA adsorbed in the sensor concentrated versus control” value was determined as 23 times.
For `COC(=O)C=C(C)OP(=O)(OC)OC` [phosdrin], in experiment [3], the “potentiometric selectivity coefficient of MPA sensor to interferences” value is 3.33 × 10^−4.
As to `O=C(O)C[C@H](NC(=O)OCc1ccccc1)C(=O)O` [N-CBZ-L-Asp], the L-Asp sensor output in experiment [1] (0.095 mM) stood at 37 mV; in experiment [1] (0.20 mM), 49 mV; in experiment [1] (0.33 mM), 59 mV; in experiment [1] (0.50 mM) it was 65 mV; in experiment [1] (0.64 mM), 72 mV; in experiment [1] (0.79 mM), 78 mV. For the same compound, the L-Asp sensor output in experiment [1] (0.93 mM) was determined as 84 mV; in experiment [1] (1.49 mM) it was 114 mV; in experiment [1] (2.79 mM) it was 172 mV; in experiment [1] (4.09 mM), 205 mV; in experiment [1] (5.32 mM), 222 mV. Also, the “potentiometric selectivity coefficient for D-isomer in the presence of L-isomer” value in experiment [2] was 4×10^−3.
`O=C(O)C[C@@H](O)C(=O)O` [D(+)-malic acid]: the “potentiometric selectivity coefficient of DPA sensor (j: interference)” value came to 35.56.
For the compound `O=P(O)(O)O` [H3PO4], in experiment [3], the “potentiometric selectivity coefficient of MPA sensor to interferences” value was 7.5×10^−3.
Consider CaCO3, for which the “potentiometric selectivity coefficient of DPA sensor (j: interference)” value was 2.22.
